In one assay the target is Methionine--tRNA ligase (Staphylococcus aureus subsp. aureus MW2, UniProt Q8NY00). The experiment in a line: Inhibitory concentration against Staphylococcus aureus methionyl tRNA synthetase.
Assay [1] deals with Enterococcus faecalis. Kind of assay: Antibacterial activity against Enterococcus faecalis 1. The class given is functional.
Assay [2] deals with Staphylococcus aureus. The experiment in a line: Antibacterial activity against Staphylococcus aureus Oxford. In kind it is functional.
The subject of the next assay is Enterococcus faecium. The experiment in a line: Concentration required to inhibit 90% population of Enterococcus faecium. In kind it is functional.
The subject of assay [3] is Enterococcus faecalis. The experiment in a line: Concentration required to inhibit 90% population of Enterococcus faecalis. The class given is functional.
Assay [4] concerns Staphylococcus aureus. Kind of assay: Concentration required to inhibit 90% population of Staphylococcus aureus. In kind it is functional.
Assay [5] concerns Staphylococcus epidermidis. Kind of assay: Concentration required to inhibit 90% population of Staphylococcus epidermidis. The class given is functional.

Converted amounts (≈) assume the structure as drawn.

Here are results for 40 molecules from ChEMBL document CHEMBL1137118, “Definition of the heterocyclic pharmacophore of bacterial methionyl tRNA synthetase inhibitors: potent antibacterially active non-quinolone analogues” (Bioorg Med Chem Lett, 2004).

Methionine--tRNA ligase, sequence (Q8NY00 whole entry): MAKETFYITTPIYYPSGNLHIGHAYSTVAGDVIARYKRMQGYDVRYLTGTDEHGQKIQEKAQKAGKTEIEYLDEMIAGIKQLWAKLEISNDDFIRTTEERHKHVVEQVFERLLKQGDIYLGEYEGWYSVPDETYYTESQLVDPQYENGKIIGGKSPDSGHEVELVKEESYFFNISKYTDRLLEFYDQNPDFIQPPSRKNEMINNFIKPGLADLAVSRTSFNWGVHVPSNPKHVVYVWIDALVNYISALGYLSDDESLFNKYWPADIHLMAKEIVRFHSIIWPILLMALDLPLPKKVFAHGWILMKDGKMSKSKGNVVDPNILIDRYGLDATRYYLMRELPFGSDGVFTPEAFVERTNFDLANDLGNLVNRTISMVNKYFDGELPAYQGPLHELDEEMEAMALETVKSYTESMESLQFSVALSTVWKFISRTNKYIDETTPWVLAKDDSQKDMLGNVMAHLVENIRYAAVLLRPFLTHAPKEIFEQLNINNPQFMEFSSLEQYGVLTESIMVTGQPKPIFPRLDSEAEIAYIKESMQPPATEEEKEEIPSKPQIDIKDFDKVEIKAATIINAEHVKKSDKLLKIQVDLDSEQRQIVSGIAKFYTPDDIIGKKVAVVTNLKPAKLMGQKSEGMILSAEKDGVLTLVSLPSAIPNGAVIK

One may read the IC50 as the midpoint of a concentration-inhibition curve. Low readings indicate greater potency, high ones weaker potency. With `Oc1cc(NCCCNCc2cc(Cl)cc(Cl)c2Cl)nc2ccccc12`, on Methionine--tRNA ligase, the 50% inhibitory concentration (IC50) was less than 3 nM.
The term MIC denotes the smallest concentration in the dilution series that meets the test's criterion for growth inhibition. A lower MIC goes with inhibition by little substance. Turning to `Oc1cc(NCCCNCc2cc(Br)cc(Br)c2)nc2ccccc12`, the minimal inhibitory concentration (MIC) was not above 0.06 µg/mL against Enterococcus faecalis [1] and 0.25 µg/mL (≈ 0.537 µM) against Staphylococcus aureus [2]. Also, the IC50 on Methionine--tRNA ligase was less than 3 nM.
Consider `Oc1nc(NCCCNC2CCNc3c(Cl)cc(Br)cc32)nc2ccsc12` (centres undefined), for which the MIC against Enterococcus faecalis [1] and with Staphylococcus aureus [2] was not above 0.06 µg/mL in each case. Moreover, the IC50 against Methionine--tRNA ligase is less than 3 nM.
Consider `CCOc1c(Br)cc(Br)cc1CNCCCNc1nc2ccccc2[nH]1`, for which the values for the MIC against Enterococcus faecalis [1] and in the assay with Staphylococcus aureus [2] were 0.25 µg/mL (≈ 0.518 µM) and 1 µg/mL (≈ 2.07 µM), respectively. For the same molecule, the IC50 against Methionine--tRNA ligase came out at 17 nM.
`CCOc1c(Cl)cc(Cl)cc1CNCCCNc1nc(O)c2sccc2n1`: the MIC was 0.13 µg/mL (≈ 0.304 µM) against Enterococcus faecalis [1] and 0.25 µg/mL (≈ 0.585 µM) with Staphylococcus aureus [2]. At Methionine--tRNA ligase, the IC50 is less than 3 nM.
In the case of `CCOc1c(Br)cc(Cl)cc1CNCCCNc1nc(O)c2sccc2n1`, the MIC with Enterococcus faecalis [1] and in the assay with Staphylococcus aureus [2] was 0.13 µg/mL (≈ 0.276 µM) each time. Besides, the half-maximal inhibitory concentration (IC50) at Methionine--tRNA ligase is less than 3 nM.
For `Clc1cc(Cl)c(Cl)c(CNCCCNc2ccc3ccccc3n2)c1`, at Methionine--tRNA ligase, the IC50 was determined as 100 nM.
As to `CCc1cc(I)c2c(c1)C(NCCCNc1nc(O)c3sccc3n1)CCN2` (centres undefined), the minimal inhibitory concentration (MIC) with Enterococcus faecalis [1] was 0.5 µg/mL (≈ 0.982 µM); against Staphylococcus aureus [2], not above 0.06 µg/mL. Further, the IC50 against Methionine--tRNA ligase was less than 3 nM.
As a reminder, the MIC90 is the lowest concentration that inhibits either 90% of growth or 90% of the strains tested, depending on the study. For the molecule `Brc1cc(Br)c2c(c1)C(NCCCNc1nc3ncccc3[nH]1)CCN2` (centres undefined), the MIC90 was determined as 0.03 µg/mL (≈ 0.0625 µM) in the assay on Enterococcus faecium, 0.06 µg/mL (≈ 0.125 µM) in the assay with Enterococcus faecalis [3], 1 µg/mL (≈ 2.08 µM) in the assay with Staphylococcus aureus [4] and 0.5 µg/mL (≈ 1.04 µM) in assay [5]. The minimum inhibitory concentration (MIC) against Enterococcus faecalis [1] and against Staphylococcus aureus [2] was not above 0.06 µg/mL each time. Further, half-maximal inhibition at Methionine--tRNA ligase (IC50) was put at 11 nM.
As to `Brc1cc(Br)cc(CNCCCNc2nc3ccccc3[nH]2)c1`, the MIC in the assay on Enterococcus faecalis [1] was 0.13 µg/mL (≈ 0.297 µM); against Staphylococcus aureus [2], 1 µg/mL (≈ 2.28 µM). Further, the midpoint of inhibition at Methionine--tRNA ligase, the IC50, lay at 29 nM.
In turn, `Oc1cc(NCCCNCc2cc(Cl)cc(Cl)c2Cl)cc2ccccc12` registered a concentration for half-maximal inhibition (IC50) at Methionine--tRNA ligase of 1800 nM.
As for `CCOc1c(Br)cc(Br)cc1CNCCCNc1nc2ccccc2c(=O)[nH]1`, the figures for the MIC against Enterococcus faecalis [1] and in the assay with Staphylococcus aureus [2] were not above 0.06 µg/mL and 0.13 µg/mL (≈ 0.255 µM), respectively. Moreover, the half-maximal inhibitory concentration (IC50) against Methionine--tRNA ligase turned out to be 9.7 nM.
Turning to `Oc1nc(NCCCNCc2cc(Br)cc(Br)c2)nc2c1CCC2`, the MIC against Enterococcus faecalis [1] and with Staphylococcus aureus [2] was more than 64 µg/mL in each case. On Methionine--tRNA ligase, this molecule showed an IC50 of 580 nM.
For the molecule `O=C(NCCCNCc1cc(Br)cc(Br)c1)Nc1ccccc1`, the minimum inhibitory concentration (MIC) against Enterococcus faecalis [1] was 8 µg/mL (≈ 18.1 µM); against Staphylococcus aureus [2], more than 64 µg/mL. The molecule further yielded a half-maximal inhibitory concentration (IC50) at Methionine--tRNA ligase of 330 nM.
The corresponding values for `CCOc1c(Br)cc(Br)cc1CNCCCNc1nc(O)c2sccc2n1` are not above 0.06 µg/mL, 0.13 µg/mL (≈ 0.252 µM) and 4.9 nM.
Consider `CCc1cc(I)c2c(c1)C(NCCCNc1nc3ccc[nH]c-3n1)CCN2` (centres undefined), for which the minimum inhibitory concentration (MIC) against Enterococcus faecalis [1] came out at 1 µg/mL (≈ 2.1 µM); against Staphylococcus aureus [2], 0.25 µg/mL (≈ 0.525 µM). This molecule gave a 50% inhibitory concentration (IC50) on Methionine--tRNA ligase of 18 nM.
For the molecule `Brc1cc(Br)cc(CNCCCNc2nc3ccc[nH]c-3n2)c1`, the MIC against Enterococcus faecalis [1] was 0.25 µg/mL (≈ 0.569 µM); against Staphylococcus aureus [2], 0.5 µg/mL (≈ 1.14 µM). Besides, the IC50 on Methionine--tRNA ligase came out at 5 nM.
The like results for `CCOc1c(Cl)cc(Cl)cc1CNCCCNc1nc(O)c2ccccc2n1` were, in that order, not above 0.06 µg/mL, 0.13 µg/mL (≈ 0.309 µM) and less than 3 nM.
Take `CCc1cc(I)c2c(c1)C(NCCCNc1nc3ccccc3[nH]1)CCN2` (centres undefined): the MIC stood at 1 µg/mL (≈ 2.1 µM) against Enterococcus faecalis [1] and 0.5 µg/mL (≈ 1.05 µM) with Staphylococcus aureus [2]. For the same molecule, on Methionine--tRNA ligase, the 50% inhibitory concentration (IC50) came to 16 nM.
The corresponding values for `CCOc1c(Br)cc(OC)cc1CNCCCNc1nc2ccccc2[nH]1` are 0.13 µg/mL (≈ 0.3 µM), 1 µg/mL (≈ 2.31 µM) and 17 nM.
Consider `N#Cc1c(NCCCNCc2cc(Br)cc(Br)c2)[nH]c2ccccc12`, for which the values for the minimum inhibitory concentration (MIC) against Enterococcus faecalis [1] and against Staphylococcus aureus [2] were 0.25 µg/mL (≈ 0.541 µM) and 0.5 µg/mL (≈ 1.08 µM), respectively. On Methionine--tRNA ligase, this molecule came in with an IC50 of 54 nM.
For `Brc1cc(Br)c2c(c1)[C@H](NCCCNc1nc3ncccc3[nH]1)CCN2`, the MIC with Enterococcus faecalis [1] and against Staphylococcus aureus [2] was not above 0.06 µg/mL in each case. The same molecule yielded an IC50 at Methionine--tRNA ligase of 6.3 nM.
On Methionine--tRNA ligase, `O=c1cc(NCCCNCc2cc(Cl)cc(Cl)c2Cl)oc2ccccc12` displayed an IC50 of 1000 nM.
Regarding `O=c1nc(NCCCNCc2cc(Br)cc(Br)c2)[nH]c2ccsc12`, the results for the MIC against Enterococcus faecalis [1] and with Staphylococcus aureus [2] were not above 0.06 µg/mL and 0.5 µg/mL (≈ 1.06 µM), respectively. The molecule further displayed an IC50 on Methionine--tRNA ligase of 3.9 nM.
For `CCOc1c(Br)cc(Cl)cc1CNCCCNc1nc(O)c2ccccc2n1`, the minimum inhibitory concentration (MIC) is not above 0.06 µg/mL with Enterococcus faecalis [1] and 0.13 µg/mL (≈ 0.279 µM) in the assay on Staphylococcus aureus [2]. This molecule gave a half-maximal inhibitory concentration (IC50) on Methionine--tRNA ligase of less than 3 nM.
In turn, `Oc1cc(SCCCNCc2ccc(Cl)c(Cl)c2)nc2ccccc12` returned an MIC in the assay on Staphylococcus aureus [2] of more than 64 µg/mL. Besides, the IC50 at Methionine--tRNA ligase was found to be 680 nM.
In the case of `Brc1cc(Br)c2c(c1)C(NCCCNc1nc3ccccc3[nH]1)CCN2` (centres undefined), the figures for the MIC in the assay on Enterococcus faecalis [1] and in the assay on Staphylococcus aureus [2] were not above 0.06 µg/mL and 0.25 µg/mL (≈ 0.522 µM), respectively. The IC50 on Methionine--tRNA ligase was determined as 13 nM.
On to `Oc1nc(NCCCNCc2cc(Br)cc(Br)c2)nc2sccc12`, for which the results for the minimum inhibitory concentration (MIC) with Enterococcus faecalis [1] and against Staphylococcus aureus [2] were 32 µg/mL (≈ 67.8 µM) and more than 64 µg/mL, respectively. Besides, 150 nM corresponded to half-maximal inhibition against Methionine--tRNA ligase (IC50).
The corresponding values for `Oc1cc(-c2ccccc2)nc(NCCCNCc2cc(Br)cc(Br)c2)n1` are more than 64 µg/mL, more than 64 µg/mL and more than 1000 nM.
Turning to `Oc1nc(NCCCNC2CCNc3c(Br)cc(Br)cc32)nc2ccsc12` (centres undefined), the MIC in the assay on Enterococcus faecalis [1] and against Staphylococcus aureus [2] was not above 0.06 µg/mL in each case. For the same molecule, it took 13 nM to reach half-maximal inhibition at Methionine--tRNA ligase (IC50).
As to `CCOc1c(Br)cc(OC)cc1CNCCCNc1nc(O)c2sccc2n1`, the MIC in the assay with Enterococcus faecalis [1] is not above 0.06 µg/mL; against Staphylococcus aureus [2] it was 0.25 µg/mL (≈ 0.535 µM). At Methionine--tRNA ligase, this molecule displayed an IC50 of 3.3 nM.
For the molecule `CCOc1c(Br)cc(OC)cc1CNCCCNc1nc(O)c2ccccc2n1`, the minimum inhibitory concentration (MIC) is not above 0.06 µg/mL in the assay with Enterococcus faecalis [1] and 0.13 µg/mL (≈ 0.282 µM) in the assay on Staphylococcus aureus [2]. The IC50 at Methionine--tRNA ligase is 7 nM.
On to `Oc1cc(OCCCNCc2ccc(Cl)c(Cl)c2)nc2ccccc12`, for which, in the assay with Staphylococcus aureus [2], the lowest concentration to inhibit growth (MIC) was 32 µg/mL (≈ 84.8 µM). This molecule yielded an IC50 against Methionine--tRNA ligase of 38 nM.
Take `Oc1cc(NCCCNCc2cc(Br)cc(Br)c2)nc2sccc12`: the minimum inhibitory concentration (MIC) in the assay with Enterococcus faecalis [1] is not above 0.06 µg/mL; in the assay on Staphylococcus aureus [2] it was 0.25 µg/mL (≈ 0.531 µM). Inhibition at Methionine--tRNA ligase was half-maximal at 6.2 nM (IC50).
On to `CCOc1c(Cl)cc(Cl)cc1CNCCCNc1nc2ccccc2[nH]1`, for which the results for the MIC in the assay on Enterococcus faecalis [1] and against Staphylococcus aureus [2] were 0.5 µg/mL (≈ 1.27 µM) and 2 µg/mL (≈ 5.08 µM), respectively. In addition, the IC50 against Methionine--tRNA ligase is less than 3 nM.
For `Oc1cc(NCCCNCc2cc(Br)cc(Br)c2)nc2ccsc12`, the minimal inhibitory concentration (MIC) with Enterococcus faecalis [1] is not above 0.06 µg/mL; in the assay with Staphylococcus aureus [2], 0.13 µg/mL (≈ 0.276 µM). Also, the half-maximal inhibitory concentration (IC50) at Methionine--tRNA ligase amounted to 4 nM.
The corresponding values for `CCOc1c(Br)cc(Cl)cc1CNCCCNc1nc2ccccc2[nH]1` are 0.5 µg/mL (≈ 1.14 µM), 1 µg/mL (≈ 2.28 µM) and 3.8 nM.
For the molecule `Oc1nc(NCCCNCc2cc(Br)cc(Br)c2)nc2ccccc12`, the results for the MIC against Enterococcus faecalis [1] and with Staphylococcus aureus [2] were not above 0.06 µg/mL and 0.25 µg/mL (≈ 0.536 µM), respectively. This molecule registered a concentration for half-maximal inhibition (IC50) on Methionine--tRNA ligase of 8.1 nM.
Consider `CCc1cc(I)c2c(c1)C(NCCCNc1nc(O)c3ccccc3n1)CCN2` (centres undefined), for which the minimum inhibitory concentration (MIC) is 0.25 µg/mL (≈ 0.497 µM) against Enterococcus faecalis [1] and not above 0.06 µg/mL with Staphylococcus aureus [2]. On Methionine--tRNA ligase, this molecule had an IC50 of 17 nM.
On to `Oc1nc(NCCCNC2CCNc3c(Cl)cc(Br)cc32)nc2ccccc12` (centres undefined), for which the minimum inhibitory concentration (MIC) in the assay with Enterococcus faecalis [1] and in the assay with Staphylococcus aureus [2] was not above 0.06 µg/mL throughout. For the same molecule, on Methionine--tRNA ligase, the IC50 worked out at 8.2 nM.
